Source: paper PMC7307906, “Macrocyclic Modalities Combining Peptide Epitopes and Natural Product Fragments” (Journal of the American Chemical Society, 2020)

Columns and labels:
human MC1R [1] = target: T1, human MC1R (Homo sapiens, UniProt Q01726); assay: cAMP assay (LANCE) in T-Rex-293 cells expressing MC1R; assay type: cell-based
T1 construct: expressed in transfected cells

human MC5R = target: T2, human MC5R (Homo sapiens, UniProt P33032); assay: Melanocortin receptor radioligand binding (SPA, [125I]-NDP-α-MSH displacement), MC5R; details: competitive binding, [125I]-NDP-α-MSH; mean (± SEM) of at least three independent experiments; read-out: IC50 hMC5R binding
T2 construct: expressed in transfected cells; host or cells: HEK293-6E suspension cells, transient expression; membranes
T2 sequence (P33032 whole entry): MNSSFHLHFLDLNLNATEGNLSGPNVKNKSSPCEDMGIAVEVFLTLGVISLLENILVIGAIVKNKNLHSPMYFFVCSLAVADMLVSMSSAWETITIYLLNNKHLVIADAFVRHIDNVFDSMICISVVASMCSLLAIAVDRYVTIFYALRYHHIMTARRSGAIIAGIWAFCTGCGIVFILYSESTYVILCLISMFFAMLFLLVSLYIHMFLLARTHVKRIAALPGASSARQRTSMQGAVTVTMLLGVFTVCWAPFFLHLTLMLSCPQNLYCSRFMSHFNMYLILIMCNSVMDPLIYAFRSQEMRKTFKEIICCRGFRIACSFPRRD

human MC3R [2] = target: T3, human MC3R (Homo sapiens, UniProt P41968); assay: Melanocortin receptor radioligand binding (SPA, [125I]-NDP-α-MSH displacement), MC3R; details: competitive binding, mean (± SEM) of at least three independent experiments, read-out: IC50 hMC3R binding
T3 construct: expressed in transfected cells
T3 sequence (P41968 whole entry): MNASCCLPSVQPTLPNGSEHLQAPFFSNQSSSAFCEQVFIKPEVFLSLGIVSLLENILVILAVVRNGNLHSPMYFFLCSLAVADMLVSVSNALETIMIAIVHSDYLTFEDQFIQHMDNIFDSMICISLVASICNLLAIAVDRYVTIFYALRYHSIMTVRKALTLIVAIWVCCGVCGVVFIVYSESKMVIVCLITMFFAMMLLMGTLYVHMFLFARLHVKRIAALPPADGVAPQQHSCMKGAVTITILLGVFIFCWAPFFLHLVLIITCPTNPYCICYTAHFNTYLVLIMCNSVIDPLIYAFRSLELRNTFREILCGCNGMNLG

hMC1−5R = assay: Melanocortin receptor cAMP assay, result stated for all receptors together; assay type: cell-based, human; details: one bound printed for all receptors
Description: Example concentration response curves for selected PepNats in MC1R, MC3R, MC4R, MC5R radioligand binding assays and MC1R, MC3R, MC4R cAMP assays. Responses were normalized to reference agonist NDP -α-MSH and presented as % effect of control, with full competition in binding defined as -100% and full agonism in cAMP assays defined as […]
binding assay. Threshold to define a compound as active was set to -30% in binding assays and 20% in cAMP assays respectively. Data are from at least three independent experiments and error bars represent ± Standard Error of the […]
% s p e c ific b in d in g o f
(1 picture or pasted object on this page, not shown here) […]
to the elution profile of the crude product . The relevant fractions containing the desired product were collected, analyzed by RP-HPLC-MS and accordingly pooled and lyophilized.
HRMS were obtained on a Thermo Scientific LTQ Fleet Orbitrap mass spectrometer coupled to an Accela HPLC-System (HPLC column: Hypersyl GOLD, 50 mm x 1 mm, particle size 1.9 μm) equipped with an electron spray ionization source (ESI). The mass detection was recorded in the range of […]
2) B) Biochemical Assays Materials and Methods
Surface Plasmon Resonance (SPR)
All SPR experiments were conducted on a Biacore T200, S200 or 8K instrument (GE Healthcare) at 20 °C using HBS-P+ as running buffer (GE Healthcare). […]

human MC3R [3] = target: T3, human MC3R; assay: cAMP assay (LANCE) in T-Rex-293 cells expressing MC3R; assay type: cell-based; details: cAMP assay; mean (± SEM) of at least three independent experiments; read-out: EC50 hMC3R cAMP
human MC1R [4] = target: T1, human MC1R; assay: Melanocortin receptor radioligand binding (SPA, [125I]-NDP-α-MSH displacement), MC1R; details: competitive binding, mean (± SEM) of at least three independent experiments, read-out: IC50 hMC1R binding

T1 sequence (Q01726 whole entry): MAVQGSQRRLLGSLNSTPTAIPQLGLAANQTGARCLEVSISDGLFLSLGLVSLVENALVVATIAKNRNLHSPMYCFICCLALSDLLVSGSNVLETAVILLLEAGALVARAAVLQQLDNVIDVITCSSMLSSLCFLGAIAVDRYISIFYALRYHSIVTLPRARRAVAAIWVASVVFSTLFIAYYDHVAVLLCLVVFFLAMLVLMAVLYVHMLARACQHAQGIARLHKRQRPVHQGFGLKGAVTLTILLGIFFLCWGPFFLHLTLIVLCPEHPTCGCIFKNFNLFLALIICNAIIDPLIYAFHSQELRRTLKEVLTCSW

% Effect hMC1R cAMP at 100 µM (human MC1R [1]; % effect at 100 µM, compounds not reaching an upper plateau (§)): 30%
EC50 (human MC1R [1]; cAMP assay, mean (± SEM) of at least three independent experiments, read-out: EC50 hMC1R cAMP): > 100 µM
IC50 (human MC5R): > 100 µM
IC50 (human MC3R [2]): > 100 µM
EC50 (hMC1−5R): > 100 µM
EC50 (human MC3R [3]): > 100 µM
IC50 (human MC1R [4]): > 100 µM
SMILES: CN1C(=O)[C@H]2N[C@@H](c3ccc(cc3)C(=O)NCCCC[C@@H](C(=O)N[C@@H](Cc3ccc(O)cc3)C(N)=O)NC(=O)[C@H](CC(N)=O)NC(=O)[C@@H](Cc3ccccc3)NC(=O)[C@@H](Cc3ccccc3)NC(=O)[C@H](CCCNC(=N)N)NC(=O)[C@@H]1Cc1ccccc1)[C@H]1C(=O)N(c3ccccc3)C(=O)[C@H]12 [K1-minor, [II-FRffNK ]Y]
